This is an account of results in paper PMC11632414 (2024).

SMILES strings stand for the structures.

Experiment [1] concerns 23TAG (DNA, G4) TAGGGTTAGGGTTAGGGTTAGGG
As to the kind of experiment: UV-Vis titration, Benesi-Hildebrand. The note with it: K+ (20 mM potassium phosphate); pH 7, 25 °C; 5 μM porphyrin titrated with DNA.

Experiment [2] concerns CMA (DNA, G4) TAGGGAGGGTAGGGAGGGT
As to the kind of experiment: UV-Vis titration, Benesi-Hildebrand. The settings on record: K+ (20 mM potassium phosphate); pH 7, 25 °C; 5 μM porphyrin titrated with DNA.

Consider `C[n+]1ccc(-c2c3nc(c(-c4cc[n+](C)cc4)c4ccc([nH]4)c(-c4cc[n+](C)cc4)c4nc(c(-c5cc[n+](C)cc5)c5ccc2[nH]5)C=C4)C=C3)cc1`, for which the figures for the Kb entry in experiment [1] and in experiment [2] were “(1.5±0.4)×10^6 M^-1” and “(1.5±0.6)×10^6 M^-1”, respectively.
